# Data published in patent EP4617278A1, “NUCLEOTIDE ANALOG, AND COMPOSITION AND USE THEREOF” (priority 2022, dated 2024).
# Tested on: RSV A2 virus
# Experiment: RSV CPE assay
# Details: human respiratory syncytial virus, HEp-2, 120 h, read-out: RSV A2 (Hep-2 cell) EC50
row,Structure (SMILES),EC50 [nM]
1,"CC(C)C(=O)OCOP(=O)(OC[C@H]1O[C@@](C#N)(c2ccc3c(N)ncnn23)[C@H](OC(=O)C(C)C)[C@@H]1OC(=O)C(C)C)Oc1ccc(C(C)(C)C)cc1 (mixture of isomers) [Compound 26, (2R,3R,4R,5R)-2-(4-aminopyrrolo[2,1-f][1,2,4]triazin-7-yl)-5-((((4-tert-butylphenoxy)((isobutyryloxy)methoxy)phosphoryl)oxy)methyl)-2-cyanotetrahydrofuran-3,4-diyl bis(2-methylpropionate)]",> 1000
2,"CC(C)C(=O)O[C@H]1[C@@H](OC(=O)C(C)C)[C@](C#N)(c2ccc3c(N)ncnn23)O[C@@H]1COP(=O)(OCCSC(=O)C(C)(C)C)Oc1ccc(C(C)(C)C)cc1 (mixture of isomers) [Compound 27, (2R,3R,4R,5R)-2-(4-aminopyrrolo[2,1-f][1,2,4]triazin-7-yl)-5-((((4-tert-butylphenoxy)(2-(pivaloylthio)ethoxy)phosphoryl)oxy)methyl)-2-cyanotetrahydrofuran-3,4-diyl bis(2-methylpropionate)]",200 to 500
3,"CC(C)OC(=O)OCO[P@@](=O)(N[C@@H](C)C(=O)OC(C)C)OC[C@H]1O[C@@](C#N)(c2ccc3c(N)ncnn23)[C@H](OC(=O)C(C)C)[C@@H]1OC(=O)C(C)C [Compound 3a, (2R,3R,4R,5R)-2-(4-aminopyrrolo[2,1-f][1,2,4]triazin-7-yl)-2-cyano-5-((((R)-(((S)-1-isopropoxy-1-oxopropan-2-yl)amino)(((isopropoxycarbonyl)oxy)methoxy)phosphoryl)oxy)methyl)tetrahydrofuran-3,4-diyl bis(2-methylpropionate)]",200 to 500
4,"CC(C)OC(=O)OCO[P@](=O)(N[C@@H](C)C(=O)OC(C)C)OC[C@H]1O[C@@](C#N)(c2ccc3c(N)ncnn23)[C@H](OC(=O)C(C)C)[C@@H]1OC(=O)C(C)C [Compound 3b, (2R,3R,4R,5R)-2-(4-aminopyrrolo[2,1-f][1,2,4]triazin-7-yl)-2-cyano-5-((((S)-(((S)-1-isopropoxy-1-oxopropan-2-yl)amino)(((isopropoxycarbonyl)oxy)methoxy)phosphoryl)oxy)methyl)tetrahydrofuran-3,4-diyl bis(2-methylpropionate)]",100 to 200
5,"CCC(CC)COC(=O)[C@H](C)N[P@](=O)(OCOC(=O)OC(C)C)OC[C@H]1O[C@@](C#N)(c2ccc3c(N)ncnn23)[C@H](OC(=O)C(C)C)[C@@H]1OC(=O)C(C)C [Compound 7a, (2R,3R,4R,5R)-2-(4-aminopyrrolo[2,1-f][1,2,4]triazin-7-yl)-2-cyano-5-((((R)-(((S)-1-(2-ethylbutoxy)-1-oxopropan-2-yl)amino)(((isopropoxycarbonyl)oxy)methoxy)phosphoryl)oxy)methyl)tetrahydrofuran-3,4-diyl bis(2-methylpropionate)]",200 to 500
6,"CCC(CC)COC(=O)[C@H](C)N[P@@](=O)(OCOC(=O)OC(C)C)OC[C@H]1O[C@@](C#N)(c2ccc3c(N)ncnn23)[C@H](OC(=O)C(C)C)[C@@H]1OC(=O)C(C)C [Compound 7b, (2R,3R,4R,5R)-2-(4-aminopyrrolo[2,1-f][1,2,4]triazin-7-yl)-2-cyano-5-((((S)-(((S)-1-(2-ethylbutoxy)-1-oxopropan-2-yl)amino)(((isopropoxycarbonyl)oxy)methoxy)phosphoryl)oxy)methyl)tetrahydrofuran-3,4-diyl bis(2-methylpropionate)]",100 to 200
7,"CCC(CC)COC(=O)[C@H](C)N[P@@](=O)(OCOC(=O)C(C)(C)C)OC[C@H]1O[C@@](C#N)(c2ccc3c(N)ncnn23)[C@H](OC(=O)C(C)C)[C@@H]1OC(=O)C(C)C [Compound 11b, (2R,3R,4R,5R)-2-(4-aminopyrrolo[2,1-f][1,2,4]triazin-7-yl)-2-cyano-5-((((S)-(((S)-1-(2-ethylbutoxy)-1-oxopropan-2-yl)amino)((pivaloyloxy)methoxy)phosphoryl)oxy)methyl)tetrahydrofuran-3,4-diyl bis(2-methylpropionate)]",200 to 500
8,"CC(C)OC(=O)OCO[P@](=O)(N[C@@H](C)C(=O)OC1CCC1)OC[C@H]1O[C@@](C#N)(c2ccc3c(N)ncnn23)[C@H](OC(=O)C(C)C)[C@@H]1OC(=O)C(C)C [Compound 13b, (2R,3R,4R,5R)-2-(4-aminopyrrolo[2,1-f][1,2,4]triazin-7-yl)-2-cyano-5-((((S)-(((S)-1-cyclobutoxy-1-oxopropan-2-yl)amino)(((isopropoxycarbonyl)oxy)methoxy)phosphoryl)oxy)methyl)tetrahydrofuran-3,4-diyl bis(2-methylpropionate)]",200 to 500
9,"CC(=O)O[C@H]1[C@@H](OC(C)=O)[C@](C#N)(c2ccc3c(N)ncnn23)O[C@@H]1COP(=O)(OCOC(=O)OC(C)C)OCOC(=O)OC(C)C [Compound 17, (2R,3R,4R,5R)-2-(4-aminopyrrolo[2,1-f][1,2,4]triazin-7-yl)-5-((((bis(((isopropoxycarbonyl)oxy)methoxy)phosphoryl))oxy)methyl)-2-cyanotetrahydrofuran-3,4-diyl diacetate]",100 to 200
10,"CC(C)OC(=O)OCOP(=O)(OCOC(=O)OC(C)C)OC[C@H]1O[C@@](C#N)(c2ccc3c(N)ncnn23)[C@H](OC(=O)C(C)C)[C@@H]1OC(=O)C(C)C [Compound 19, (2R,3R,4R,5R)-2-(4-aminopyrrolo[2,1-f][1,2,4]triazin-7-yl)-5-((((bis(((isopropoxycarbonyl)oxy)methoxy))phosphoryl)oxy)methyl)-2-cyanotetrahydrofuran-3,4-diyl bis(2-methylpropionate)]",200 to 500
11,"CC(C)OC(=O)OCOP(=O)(OCOC(=O)OC(C)C)OC[C@H]1O[C@@](C#N)(c2ccc3c(N)ncnn23)[C@H](OC(=O)C(C)(C)C)[C@@H]1OC(=O)C(C)(C)C [Compound 20, (2R,3R,4R,5R)-2-(4-aminopyrrolo[2,1-f][1,2,4]triazin-7-yl)-5-((((bis(((isopropoxycarbonyl)oxy)methoxy))phosphoryl)oxy)methyl)-2-cyanotetrahydrofuran-3,4-diyl bis(2,2-dimethylpropionate)]",> 1000
12,"CC(C)OC(=O)OCO[P@@](=O)(OC[C@H]1O[C@@](C#N)(c2ccc3c(N)ncnn23)[C@H](OC(=O)C(C)C)[C@@H]1OC(=O)C(C)C)Oc1ccc(C(C)(C)C)cc1 [Compound 24a, (2R,3R,4R,5R)-2-(4-aminopyrrolo[2,1-f][1,2,4]triazin-7-yl)-5-((((S)-(4-tert-butylphenoxy)(((isopropoxycarbonyl)oxy)methoxy)phosphoryl)oxy)methyl)-2-cyanotetrahydrofuran-3,4-diyl bis(2-methylpropionate)]",> 1000
13,"CC(C)C(=O)O[C@H]1[C@@H](OC(=O)C(C)C)[C@](C#N)(c2ccc3c(N)ncnn23)O[C@@H]1COP(=O)(OCOC(=O)C(C)(C)C)OCOC(=O)C(C)(C)C [Compound 29, (2R,3R,4R,5R)-2-(4-aminopyrrolo[2,1-f][1,2,4]triazin-7-yl)-5-((((bis(((tert-butylcarbonyl)oxy)methoxy))phosphoryl)oxy)methyl)-2-cyanotetrahydrofuran-3,4-diyl bis(2-methylpropionate)]",500 to 1000
14,"CC(C)C(=O)O[C@H]1[C@@H](OC(=O)C(C)C)[C@](C#N)(c2ccc3c(N)ncnn23)O[C@@H]1COP(=O)(OCCSC(=O)C(C)(C)C)OCCSC(=O)C(C)(C)C [Compound 30, (2R,3R,4R,5R)-2-(4-aminopyrrolo[2,1-f][1,2,4]triazin-7-yl)-5-((((bis(2-(pivaloylthio)ethoxy))phosphoryl)oxy)methyl)-2-cyanotetrahydrofuran-3,4-diyl bis(2-methylpropionate)]",200 to 500
